From patent US20260315499A1, “2'- {HETEROCYCLYL (ARYL/ALKYL) METHYL} - CANNABIDIOL COMPOUNDS AND PROCESS FOR PREPARATION THEREOF” (COUNCIL OF SCIENTIFIC & INDUSTRIAL RESEARCH, priority 2023, published 2026)
“And” between values parts separate entries of the source, which are not always exact repeats. Equal values may be shown once. Read-outs that look alike come from different tables or passages of the source.

How the values were obtained:
depression mice model [1] = test: In vivo corticosterone induced depression model: sucrose preference test; design: species or system mouse (male C57); details: 2% sucrose, 21 days
Protocol: (§1) In vivo efficacy (ameliorates behavioral despair) of A1 in corticosterone induced model of stress (J. Neurochem., 2018 146, 722 734). […] A1 (20 mg/kg, oral) dissolved in normal saline was given for 3 consecutive weeks following corticosteroid stress. The sucrose preference test was employed, tail suspension test, and forced swim test to evaluate behavioral distress. We noticed that A1 can resurrect mice in stressful situations. […]
Sucrose consumption was employed to evaluate anhedonia, a core hallmark of depression in mice. The animals were allowed unfettered access to both identical bottles, one containing water while the other contained a 2% solution of sucrose, for 21 days.
The below equation was later employed to determine water and sugar consumed by mice:
Sucrose Preference=Sucrose consumed[…]/Total fluid intake.

[2] = In vivo corticosterone induced depression model: effect on body weight; design: species or system mouse (male C57); details: 21 days
Protocol: as §1

depression mice model [3] = test: In vivo corticosterone induced depression model: Forced Swim Test; design: species or system mouse (male C57)
Protocol: as §1
The forced swim test was employed to evaluate behavioral melancholy in depressed subjects. Each animal was individually conditioned in a glass cylinder 20 cm long, 10 cm deep and 14 cm radius of curvature. After being submerged in water for 5 mins, the mice's cumulative stationary episode, struggle in water, and eventual floating condition were evaluated. The duration for which the animals were motionless while attempting to hold both of their front limbs still was calculated by interpreting the visualizations portraying behavioral despair (Front Behav Neurosci., 2018, 12, 42).

depression mice model [4] = test: In vivo corticosterone induced depression model: Tail Suspension Test (TST); design: species or system mouse (male C57)
Protocol: A1 (20 mg/kg, oral) dissolved in normal saline was given for 3 consecutive weeks following corticosteroid stress. The sucrose preference test was employed, tail suspension test, and forced swim test to evaluate behavioral distress.
Tail Suspension Test (TST) is a behavioral test employed to assess perturbations expected to influence depression like phenotypes. TST is grounded on the reflection that the extent of immobility is allied with depressing phenotype of mice overturned by antidepressants. Mice were positioned 2 cm from their tail tips and 5 cm above the ground suspending the tails using adhesive tape for the free movement (Acta Neuropathol Commun., 2016, 4(1), 108).
The contemporary immobility was alluded to as interruption in motion, where a blind assessor evaluates the disappointed aspect of display before scoring it.

p-Erk 44/42 [5] = test: Survival pathway protein expression by western blotting in SHSY5Y; assay type: cell-based, human; details: after corticosterone insult
Protocol: (§2) Here, A1 was tested to find its role in eliciting survival pathway proteins in differentiated human neuroblastoma cells in concentration and time dependent manner.
(§3) To investigate the effect of A1 on the survival proteins, SHSY5Y cell cultures were treated with different concentrations for 6 hrs and analyzed for the expression of survival proteins, including p-Erk 44/42, p-AKT 473, Anti BDNF, and p TrkB 816 and p TrKB 515 by western blotting.

p TrkB 816 = test: as above; assay type: cell-based, human
Protocol: as §2, §3

Anti BDNF [6] = test: as above; assay type: cell-based, human; details: after corticosterone insult
Protocol: as §2, §3

p TrkB 515 = test: as above; assay type: cell-based, human
Protocol: as §2, §3

Anti BDNF [7] = test: as above; assay type: cell-based, human; details: Cort. 400 μM, 6 hrs
p-Erk 44/42 [8] = test: as above; assay type: cell-based, human; details: Cort. 400 μM, 6 hrs
p-AKT 473 = test: as above; assay type: cell-based, human
Protocol: as §2
To investigate the effect of A1 on the survival proteins, […] of survival proteins, including p-Erk 44/42, p-AKT 473, Anti BDNF, and p TrkB 816 and p TrKB 515 by western blotting.

[9] = Cell viability assay in differentiated neuronal cells (MTT), N2A; assay type: cell-based; details: mouse, read-out: % Cell viability ± SD, N2A
From the text: (§4) In the present disclosure outlined herein, a focused library of cannabidiol analogues were studied for possible neuro-protective potential employing cell line-based stress model systems which mimic the biological stress conditions in vitro (J Cell Biochem., 2018, 119(8), 6482-6491).
(§5) Human neuroblastoma cells (SHSY5Y) and mouse neuroblastoma cells (N2A) were procured from American Type Culture Collection (ATCC). SHSY5Y cell cultures were maintained in DMEM F12 (Invitrogen) whereas N2A were cultured in DMEM (Invitrogen) with 10% Fetal Bovine Serum (Gibco) medium, subjected to differentiation to acquire neuronal morphology (employing differentiation media DMEM-F12, 3-5% FBS, (For differentiation, low concentration of FBS was used) and 50 μM retinoic acid). Differentiated cells were later seeded into 96 well plates, at a density of 1×10^4 before being incubated for 48 hrs with the synthesized library. The exhausted culture media was substituted with new culture media containing 0.5 mg/ml MTT dye. Eventually, the OD at 490 nm excitation was measured using a 96-well plate reader. The proportion of viable cells was determined as percentage of absorbance of untreated cultures relative to control.

[10] = Cell viability assay in differentiated neuronal cells (MTT), SHSY5Y; assay type: cell-based; details: human, read-out: % Cell viability ± SD, SHSY5Y
From the text: as §4, §5

[11] = Cell viability assay in macrophage RAW264.7 cells (MTT); assay type: cell-based; details: mouse, read-out: % cell viability ± SD
Protocol: RAW264.7 cells were seeded in 96-well cell culture plates at a density of 1×10^4 cells per well and incubated overnight at 37° C. with 5% CO2. Next day, the cells were treated with CBD or its derivatives at 5 μM and/or 10 μM concentration for 24 hrs. The MTT dye (2.5 mg/ml, 20 μL) was added to each well 4 hrs before termination (Molecules. 2022, 27, 8068). After 4 hrs of incubation with MTT, the supernatant was discarded, and the formazan crystals were dissolved by adding 100 μL DMSO. The absorbance was recorded at 540 nm on microplate reader (Tecan Infinite Pro).

[12] = test system: nitric oxide (NO) production in RAW264.7 macrophages; test: In vitro anti-inflammatory activity: nitric oxide production (Griess) in LPS-exposed RAW264.7 macrophages; assay type: cell-based, mouse; details: LPS 24 hrs
Protocol: Measurement of Nitric oxide: RAW264.7 macrophages were seeded in 96-well plates with a density of 0.5×10^5 cells/well and incubated overnight at 37° C. in a 5% CO2 atmosphere. The cells were treated with different concentration of CBD and its analogues and exposed to LPS for 24 hrs. For nitric oxide (NO) determination, the cell culture supernatant was taken and mixed with equal volume of Griess reagent in another 96 well plate at room temperature (Biomed Pharmacother., 2017, 92, 175-186). The absorbance was measured at 540 nm. The final calculations were determined on a NaNO2 standard curve.

TrkB stable cells SHSY5Y = test: Cytoprotective effect in TrkB stable cells SHSY5Y, 96 hrs; assay type: cell-based, human; details: Homo sapiens, SH-SY5Y, 96 h
Protocol: In another experiment, the cytoprotective effect of A1 as well as parent molecule B1 was determined in TrkB stable cells SHSY5Y.

[13] = without Cort., A1 20 mg/kg, fluoxetine 18 mg/kg
[14] = Cort. alone, listed as corticosterone

## CNCCC(Oc1ccc(C(F)(F)F)cc1)c1ccccc1 (stereo not drawn) [Fluoxetine]
Depression mice model [1]; with Cort.
  % Sucrose consumption (ml) ± SD: 72.39 ± 2.69%
Depression mice model [1]; without Cort.
  % Sucrose consumption (ml) ± SD: 82.10 ± 0.29%
[2]; with Cort. 35 μg/ml, A1 20 mg/kg oral, fluoxetine 18 mg/kg
  Weight (g) ± SD: 38 ± 2.16 g
[2]; without Cort., A1 20 mg/kg oral, fluoxetine 18 mg/kg
  Weight (g) ± SD: 40.42 ± 2.25 g
Depression mice model [3]; with Cort.
  % Immobility (sec) ± SD (dead time): 47.84 ± 10.33 s
  % Latency to immobility (sec) ± SD: 34.06 ± 11.21 s
Depression mice model [3]; with Cort., listed as fluoxetine
  % Immobility (sec) ± SD (dead time): 47.84 ± 10.33 s
Depression mice model [3]; without Cort.
  % Immobility (sec) ± SD (dead time): 22.39 ± 4.91 s
  % Latency to immobility (sec) ± SD: 55.34 ± 15.71 s
Depression mice model [4]; with Cort. 35 μg/ml, A1 20 mg/kg, fluoxetine 18 mg/kg
  % Latency to immobility (sec) ± SD: 34.79 ± 6.38 s
Depression mice model [4]; with Cort. 35 μg/ml, A1 20 mg/kg, fluoxetine 18 mg/kg, listed as fluoxetine
  % Latency to immobility (sec) ± SD: 34.79 ± 6.38 s
Depression mice model [4]; [13]
  % Immobility (sec) ± SD (dead time): 19.61 ± 7.90 s and 19.61 s
  % Latency to immobility (sec) ± SD: 49.51 ± 7.84 s and 49.51 ± 7.82 s

## C[C@]12C[C@H](O)[C@H]3[C@@H](CCC4=CC(=O)CC[C@@]43C)[C@@H]1CC[C@@H]2C(=O)CO [Cort., corticosterone, reference compound]
Depression mice model [1]; Cort. alone, negative control
  % Sucrose consumption (ml) ± SD: 43.50 ± 3.35%
Depression mice model [1]; Cort. alone, negative control, listed as corticosterone
  % Sucrose consumption (ml) ± SD: 43.50±3.35%
p-Erk 44/42 [5]
  p-Erk 44/42 level (in words): decrease
P TrkB 816; Cort. 400 μM, 6 hrs
  Relative Protein Expression p TrkB 816: 0.36
P TrkB 816; after corticosterone insult
  p TrkB 816 level (in words): decrease
Anti BDNF [6]
  anti BDNF level (in words): decrease
P TrkB 515; Cort. 400 μM, 6 hrs
  Relative Protein Expression p TrkB 515: 0.15
P TrkB 515; after corticosterone insult
  p TrkB 515 level (in words): decrease
[2]; Cort. alone 35 μg/ml, negative control
  Weight (g) ± SD: 29.57 ± 3.90 g
[2]; Cort. alone 35 μg/ml, negative control, listed as corticosterone
  Weight (g) ± SD: 27.40 ± 1.91 g
Anti BDNF [7]
  Relative Protein Expression Anti BDNF: 0.10
p-Erk 44/42 [8]
  Relative Protein Expression p ERK 44/42: 0.36
p-AKT 473; Cort. 400 μM, 6 hrs
  Relative Protein Expression PAKT 473: 0.01
p-AKT 473; after corticosterone insult
  p-AKT 473 level (in words): decrease
Depression mice model [3]; Cort. alone 35 μg/ml
  % Immobility (sec) ± SD (dead time): 67.15 ± 12.32 s
  % Latency to immobility (sec) ± SD: 16.14 ± 5.68 s
Depression mice model [4]; Cort. alone
  % Immobility (sec) ± SD (dead time): 52.32 ± 9.96 s
  % Latency to immobility (sec) ± SD: 6.97 ± 4.52 s
Depression mice model [4]; [14]
  % Immobility (sec) ± SD (dead time): 52.32 ± 9.96 s
  % Latency to immobility (sec) ± SD: 6.97 ± 4.52 s

## C=C(C)[C@@H]1CCC(C)=C[C@H]1c1c(O)cc(CCCCC)cc1O [B1, cannabidiol]
[9]
  viability at 48 h, 20 µM: 107 ± 1.53%
[10]
  viability at 48 h, 20 µM: 108 ± 1.13%
[11]; RAW264.7, 5 μM
  viability at 24 h, 5 µM: 95.5 ± 1.5%
[11]; RAW264.7, 10 μM
  viability at 24 h, 10 µM: 91 ± 1.6%
[12]; Mus musculus, RAW264.7, 5 μM, read-out: % NO Inhibition ± SD
  inhibition at 5 µM: 24.3 ± 3.2%
[12]; Mus musculus, RAW264.7, 10 μM, read-out: % NO Inhibition ± SD
  inhibition at 10 µM: 38.3 ± 3.7%
[12]; pre-treated
  production of NO (in words): decreased
TrkB stable cells SHSY5Y; read-out: % Cell viability ± SD, test compound 20 μM + Cort. 400 μM, 96 hrs
  viability at 20 µM: 86.7 ± 1.16%
TrkB stable cells SHSY5Y; read-out: % Cell viability ± SD, test compound alone, 20 μM, 96 hrs
  viability at 20 µM: 102 ± 1.06%
